From PubChem BioAssay (NCI)
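96-well plates; 48 h exposure; 5 concentrations. Endpoints by linear interpolation between flanking doses. Not reached: highest tested concentration assigned. GI50 is the concentration that inhibits growth by half. TGI marks complete inhibition of growth.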

Assays:
Experiment in all cases: DTP human tumour cell line panel, 48 h
786-0 renal = test system: 786-0 renal
A498 renal = test system: A498 renal
A549 NSCLC = test system: A549 NSCLC
ACHN renal = test system: ACHN renal
BT-549 breast = test system: BT-549 breast
CAKI-1 renal = test system: CAKI-1 renal
CCRF-CEM leukemia = test system: CCRF-CEM leukemia
DU-145 prostate = test system: DU-145 prostate
EKVX NSCLC = test system: EKVX NSCLC
HCC-2998 colon = test system: HCC-2998 colon
HCT-116 colon = test system: HCT-116 colon
HCT-15 colon = test system: HCT-15 colon
HL-60(TB) leukemia = test system: HL-60(TB) leukemia
HOP-62 NSCLC = test system: HOP-62 NSCLC
HOP-92 NSCLC = test system: HOP-92 NSCLC
HS 578T breast = test system: HS 578T breast
HT29 colon = test system: HT29 colon
K-562 leukemia = test system: K-562 leukemia
KM12 colon = test system: KM12 colon
LOX IMVI melanoma = test system: LOX IMVI melanoma
M14 melanoma = test system: M14 melanoma
MALME-3M melanoma = test system: MALME-3M melanoma
MCF7 breast = test system: MCF7 breast
MDA-MB-231 breast = test system: MDA-MB-231 breast
MDA-MB-435 = test system: MDA-MB-435
MDA-N = test system: MDA-N
MOLT-4 leukemia = test system: MOLT-4 leukemia
NCI-H226 lung = test system: NCI-H226 lung
NCI-H23 lung = test system: NCI-H23 lung
NCI-H460 lung = test system: NCI-H460 lung
NCI-H522 lung = test system: NCI-H522 lung
NCI/ADR-RES ovarian = test system: NCI/ADR-RES ovarian
OVCAR-3 ovarian = test system: OVCAR-3 ovarian
OVCAR-4 ovarian = test system: OVCAR-4 ovarian
OVCAR-5 ovarian = test system: OVCAR-5 ovarian
OVCAR-8 ovarian = test system: OVCAR-8 ovarian
PC-3 prostate = test system: PC-3 prostate
RPMI-8226 leukemia = test system: RPMI-8226 leukemia
RXF 393 renal = test system: RXF 393 renal
SF-268 CNS = test system: SF-268 CNS
SF-295 CNS = test system: SF-295 CNS
SF-539 CNS = test system: SF-539 CNS
SK-MEL-2 melanoma = test system: SK-MEL-2 melanoma
SK-MEL-28 melanoma = test system: SK-MEL-28 melanoma
SK-MEL-5 melanoma = test system: SK-MEL-5 melanoma
SK-OV-3 ovarian = test system: SK-OV-3 ovarian
SNB-19 CNS = test system: SNB-19 CNS
SNB-75 CNS = test system: SNB-75 CNS
SW-620 colon = test system: SW-620 colon
T-47D breast = test system: T-47D breast
TK-10 renal = test system: TK-10 renal
U251 CNS = test system: U251 CNS
UACC-257 melanoma = test system: UACC-257 melanoma
UACC-62 melanoma = test system: UACC-62 melanoma
UO-31 renal = test system: UO-31 renal
COLO 205 colon = test system: COLO 205 colon
SN12C renal = test system: SN12C renal
SR leukemia = test system: SR leukemia

In the case of N#CCCN(CCCN(C(=O)N(c1ccccc1)c1ccccc1)c1ccccc1)C(=O)Nc1ccccc1, the TGI (786-0 renal) is reported as > 100 µM, the TGI (A498 renal) is reported as > 100 µM and the TGI (A549 NSCLC) is reported as > 100 µM. For the same compound, the TGI (ACHN renal) was > 100 µM, the TGI (BT-549 breast) was > 100 µM and the TGI (CAKI-1 renal) was > 100 µM. For the same compound, the TGI (CCRF-CEM leukemia) was 83.6 µM, the TGI (DU-145 prostate) was > 100 µM and the TGI (EKVX NSCLC) was > 100 µM. The TGI (HCC-2998 colon) was > 100 µM, the TGI (HCT-116 colon) was > 100 µM and the TGI (HCT-15 colon) was > 100 µM. For the same compound, the TGI (HL-60(TB) leukemia) was 45.1 µM, the TGI (HOP-62 NSCLC) was > 100 µM and the TGI (HOP-92 NSCLC) was > 100 µM. The TGI (HS 578T breast) was > 100 µM, the TGI (HT29 colon) was > 100 µM and the TGI (K-562 leukemia) was > 100 µM. The TGI (KM12 colon) was > 100 µM, the TGI (LOX IMVI melanoma) was > 100 µM and the TGI (M14 melanoma) was > 100 µM. The TGI (MALME-3M melanoma) was > 100 µM, the TGI (MCF7 breast) was > 100 µM and the TGI (MDA-MB-231 breast) was > 100 µM. For the same compound, the TGI (MDA-MB-435) was > 100 µM, the TGI (MDA-N) was > 100 µM and the TGI (MOLT-4 leukemia) was > 100 µM. For the same compound, the TGI (NCI-H226 lung) was > 100 µM, the TGI (NCI-H23 lung) was > 100 µM and the TGI (NCI-H460 lung) was > 100 µM. For the same compound, the TGI (NCI-H522 lung) was > 100 µM, the TGI (NCI/ADR-RES ovarian) was > 100 µM and the TGI (OVCAR-3 ovarian) was > 100 µM. For the same compound, the TGI (OVCAR-4 ovarian) was > 100 µM, the TGI (OVCAR-5 ovarian) was > 100 µM and the TGI (OVCAR-8 ovarian) was > 100 µM. For the same compound, the TGI (PC-3 prostate) was > 100 µM, the TGI (RPMI-8226 leukemia) was > 100 µM and the TGI (RXF 393 renal) was > 100 µM. For the same compound, the TGI (SF-268 CNS) was > 100 µM, the TGI (SF-295 CNS) was > 100 µM and the TGI (SF-539 CNS) was > 100000 nM. The TGI (SK-MEL-2 melanoma) was > 100 µM, the TGI (SK-MEL-28 melanoma) was > 100 µM and the TGI (SK-MEL-5 melanoma) was > 100 µM. For the same compound, the TGI (SK-OV-3 ovarian) was > 100 µM, the TGI (SNB-19 CNS) was > 100 µM and the TGI (SNB-75 CNS) was > 100 µM. For the same compound, the TGI (SW-620 colon) was > 100 µM, the TGI (T-47D breast) was > 100 µM and the TGI (TK-10 renal) was > 100 µM. For the same compound, the TGI (U251 CNS) was > 100 µM, the TGI (UACC-257 melanoma) was > 100 µM and the TGI (UACC-62 melanoma) was > 100 µM. For the same compound, the TGI (UO-31 renal) was > 100 µM.
For CCC(Cc1cnc2nc(N)nc(N)c2n1)c1ccc(C(=O)NC(CCC(=O)O)C(=O)O)cc1 (centres undefined), the TGI (786-0 renal) was > 100 µM, the TGI (A498 renal) was > 100 µM and the TGI (A549 NSCLC) was > 100 µM. For the same compound, the TGI (ACHN renal) was > 100 µM, the TGI (BT-549 breast) was > 100 µM and the TGI (CAKI-1 renal) was > 100 µM. The TGI (CCRF-CEM leukemia) was > 100 µM, the TGI (COLO 205 colon) was > 100 µM and the TGI (DU-145 prostate) was > 100 µM. For the same compound, the GI50 (EKVX NSCLC) was 19.6 nM, the TGI (EKVX NSCLC) was > 100 µM and the TGI (HCT-116 colon) was > 100 µM. For the same compound, the TGI (HCT-15 colon) was > 100 µM, the TGI (HL-60(TB) leukemia) was > 100 µM and the TGI (HOP-62 NSCLC) was > 100 µM. For the same compound, the TGI (HS 578T breast) was > 100 µM, the TGI (HT29 colon) was > 100 µM and the TGI (K-562 leukemia) was > 100 µM. The TGI (KM12 colon) was > 100 µM, the TGI (LOX IMVI melanoma) was > 100 µM and the GI50 (M14 melanoma) was 34.5 µM. The TGI (M14 melanoma) was > 100 µM, the TGI (MCF7 breast) was > 100 µM and the GI50 (MDA-MB-231 breast) was > 100 µM. For the same compound, the TGI (MDA-MB-231 breast) was > 100 µM, the TGI (MDA-MB-435) was > 100 µM and the TGI (MDA-N) was > 100 µM. For the same compound, the TGI (MOLT-4 leukemia) was > 100 µM, the GI50 (NCI-H226 lung) was > 100 µM and the TGI (NCI-H226 lung) was > 100 µM. For the same compound, the TGI (NCI-H23 lung) was > 100 µM, the TGI (NCI-H460 lung) was > 100 µM and the TGI (NCI-H522 lung) was > 100 µM. For the same compound, the TGI (NCI/ADR-RES ovarian) was > 100 µM, the GI50 (OVCAR-3 ovarian) was > 100 µM and the TGI (OVCAR-3 ovarian) was > 100 µM. For the same compound, the GI50 (OVCAR-4 ovarian) was > 100 µM, the TGI (OVCAR-4 ovarian) was > 100 µM and the TGI (OVCAR-5 ovarian) was > 100 µM. For the same compound, the TGI (OVCAR-8 ovarian) was > 100 µM, the TGI (PC-3 prostate) was > 100 µM and the TGI (SF-268 CNS) was > 100 µM. The TGI (SF-295 CNS) was > 100 µM, the TGI (SF-539 CNS) was 1280 nM and the GI50 (SK-MEL-2 melanoma) was > 100 µM. The TGI (SK-MEL-2 melanoma) was > 100 µM, the GI50 (SK-MEL-28 melanoma) was > 100 µM and the TGI (SK-MEL-28 melanoma) was > 100 µM. The TGI (SK-MEL-5 melanoma) was > 100 µM, the TGI (SN12C renal) was > 100 µM and the GI50 (SNB-19 CNS) was 13.4 nM. The TGI (SNB-19 CNS) was > 100 µM, the TGI (SNB-75 CNS) was > 100 µM and the TGI (SR leukemia) was > 100 µM. The TGI (SW-620 colon) was > 100 µM, the TGI (T-47D breast) was > 100 µM and the TGI (TK-10 renal) was > 100 µM. The TGI (UACC-257 melanoma) was > 100 µM and the TGI (UO-31 renal) was > 100 µM.
